From patent US20260007651A1, “Effect of YEL002 on Conditions and Diseases” (RadMit, Inc., priority 2022, published 2026) come the findings set out here.

For series [1], the system named is mice irradiated with an LD100. Briefly: Radiation mitigation: survival of mice irradiated with an LD100. The class given is in vivo. How it is done:
There were 10 primary hits and 6 confirmed hits and 2 of them were used in mice. Mice were irradiated with an LD100 after which 100% of the mice died after 10 to 15 days. When the researchers injected YEL002 IP into the irradiated mice 24 hours after radiation and another four doses in 24 hours intervals 100% of the mice, so all mice which would otherwise have died survived which was a highly significant difference. Many lived a normal life span of more than 2 years which is interesting since other labs which isolated other compounds their mice died of late radiation effects much earlier.

The test system of a further series is ATM-deficient mice. Briefly: Lifespan of ATM-deficient mice injected weekly. The class given is in vivo. To be noted: ATM-deficient mice injected every week during most of their lifespans.
The test system of a further series is lymphoma. In words: Lymphoma incidence in mice (National Institute of Health experiment). Type of series: in vivo. To be noted: radiation exposure caused 90% to develop lymphoma without treatment. How it is done:
This was observed after treating mice right after birth, if humans are treated later in life it is possible that only 10 or 5 years are added and probably more for DNA repair deficient diseases like ataxia telangiectasia (ATM) which is still very substantial.

In series [2] the test system is three different cancer cell lines. In words: Radiation killing of cancer cell lines. Type of series: cell-based.
A further series deals with human keratinocytes. Briefly: Proteomics study of induced proteins. Type of series: cell-based. From the text: In terms of mechanism of action in a proteomics study, the chemical was capable of inducing 244 different proteins in human keratinocytes, which comprised anti-inflammatory proteins, a number of DNA repair proteins, and even some neuroprotective proteins. It is known that turtles at the Galapagos Islands live 150 or more years without cancer and have multiple copies of DNA repair genes and anti-inflammatory genes. The compound boosts the expression of these genes in mammals. Since it induces DNA repair and is anti-inflammatory, it may be possible to prevent and cure many diseases and extend the life. In addition, patients are using the compound to try to treat Alzheimer's, multiple sclerosis, alopecia, diabetes, to prevent prostate cancer, to increase testosterone level, etc. People report feeling more energetic, less tired, and less combative and become nicer.

A short description of a further series: Side effects observed. To be noted: in vivo. From the text:
It is also observed that three different cancer cell lines were not protected from radiation killing by YEL002, which indicates a use in radiation oncology or chemotherapy where the tumor can still be killed by the radiation, or chemotherapy but YEL002 protects the rest of the body from radiation or chemotherapy damage, and inhibits secondary carcinogenesis.

The nature of a further series: Solubility / appearance. The class given is physicochemical. The method, then:
The compound takes the appearance of an off-white powder and is fat soluble. One takes a quarter teaspoon or about 0.5 g dissolved in a couple of teaspoons of oil. In an exemplary embodiment, it is dissolved in grape seed oil and taken twice a day, once in the morning and once in the evening. It is easy to use and has almost no taste.

Series [3] can be described thus: Case study, eight weeks of use (coughing, diarrhea). To be noted: used for eight weeks. Type of series: in vivo, human. From the text:
It has also beneficial effects on the skin and one needs less of a cosmetic cream containing the same compound.

The nature of series [4]: User study: periodontics or receding gums. On the set-up: species or system human. To be noted: in vivo. The source says: In a user study, the patient's periodontics or receding gums were healed and no longer needed to floss teeth as much, since the teeth are now perfectly aligned and close together without a space in between.
The nature of series [5]: Eye sight, eye exam in an ophthalmology office. The class given is in vivo, human. How it is done: The patient also observed no longer needing eyeglasses after 55 years of wearing them, and after 4 weeks with the drug, the subject can see much better than anybody their age. According to the patient, the compound fixed 2 diopters and 1 astigmatism of eye sight deficiency in only 4 weeks. An eye exam was conducted in an ophthalmology office. […] In every subject using the chemical the eye background is completely green, because YEL002 benefits the retina and optic nerve.

Series [6] is described as follows: Patient testimonial: veins and blood. To be noted: human, in vivo. From the text: His blood is thinner, since proinflammatory factors make platelets sticky and cause blood clots. Thus, it prevents or treats blood clots.
Series [7] in a line: Patient testimonial: elevated levels of liver damage. Type of series: in vivo, human. To be noted: after two days of treatment; twice elevated for 25 years before.
The nature of series [8]: Patient testimonial: subject on chemotherapy. The class given is in vivo, human. To be noted: one week on YEL002, subject on chemotherapy. From the text:
They are extremely happy and all their doctors are happy too and told them that they need to continue their experimental therapy.

A short description of series [9]: Patient testimonial: subject post-chemotherapy, coughing and wheezing. Type of series: in vivo, human. To be noted: one hour after treatment. From the text:
According to another patient testimonial, one subject post-chemotherapy had coughing and wheezing symptoms and went downhill very fast and their child was worried that they were dying.

The nature of series [10]: Patient testimonial: heavy smoker, smoker's leg and hair loss. Type of series: in vivo, human. To be noted: one week after treatment. The source says:
According to another patient testimonial, one subject was a heavy smoker and they had all kinds of inflammation problems including smoker's leg which were oozing lymph liquid and could not heal for many years.

A short description of series [11]: Patient testimonial: nose spray in oil, allergic attacks. The class given is in vivo, human. To be noted: dissolved in oil, nose spray 2-4 times a day. From the text: According to another patient testimonial, one subject dissolved YEL002 in oil and used that oil to spray their nose 2-4 times a day.

For `COc1ccc2cc(-c3nc4ccc(C)cn4c3NCc3ccco3)c(=O)[nH]c2c1` [YEL002], in series [1] (LD100 irradiation, IP 24 hours after radiation and another four doses in 24 hours intervals, without treatment 100% died after 10 to 15 days), the mice survived was 100%. For the same compound, the “life span of surviving irradiated mice” value in [1] (many of the surviving mice) is recorded as “more than 2 years”. The “lived longer than without injections” value in the series with ATM-deficient mice is recorded as 33%. Also, the “lymphoma incidence after radiation exposure” value with lymphoma was found to be 40%. Moreover, in series [2], the “protection of cancer cell lines from radiation killing” value is reported as “not protected”. Moreover, in the series on human keratinocytes (human keratinocytes, anti-inflammatory, DNA repair and neuroprotective proteins), the “number of different proteins induced” value is 244. Moreover, the “number of neuroprotective functions induced” value in the series on human keratinocytes (proteomics) is 9. For the same compound, the side effects entry in the series “Side effects observed” is “no side effects”. In addition, the solubility entry in “Solubility / appearance” is “fat soluble”. In addition, the “symptoms of coughing and diarrhea” value in series [3] was “reduced symptoms of coughing and diarrhea”. Besides, in [4], the “periodontics or receding gums” value is “healed”. The need for eyeglasses entry in series [5] (another subject who had 6 diopters) is recorded as “does not require eyeglasses any longer”. In [5] (in 4 weeks), the “eye sight deficiency fixed, astigmatism” value worked out at 1 astigmatism and the “eye sight deficiency fixed, diopters” value is listed as 2 diopters. In series [6], the blood result is “thinner”; the “varicose and spider veins” value was “fixes varicose and spider veins”. Further, in series [7], the “levels of liver damage” value was “normal and below the cutoff”. Also, in series [8], the body weight gained stood at 2 kg and the vomiting result is “completely stopped”. Also, the “coughing and wheezing symptoms” value in series [9] is “completely alleviated”. Moreover, in series [10], the hair loss entry was “completely stopped” and the “smoker's leg condition” value was “completely healed”. In [11], the “allergic attacks such as sneezing and runny nose” value was “completely prevented all allergic attacks”.
